Results taken from patent publication US20110306137A1, “METHODS AND COMPOSITIONS FOR MODULATING DIFFERENTIATION OF PLURIPOTENTIAL CELLS” (priority 2007, published 2011).

Experiments:
MASCs [1] = experiment: Osteogenic differentiation of MASCs with Notch activation by clustered Jag1/Fc, with or without DAPT; format: cell-based, human; details: for effect on Jagged stimulation of osteogenesis: 5 μM DAPT
Procedure: MASCs (prepared essentially as described in Example 1) were plated at 10^4 cells/well in 96-well plates in […]MEM (Mediatech, Herndon, Va.) supplemented with 10% Fetal Bovine Serum (FBS, HyClone, Logan Utah) and cultured overnight. The next day, cells were transferred to osteogenic differentiation medium (composition described in Example 5).
During the differentiation procedure, certain batches of cells were subjected to Notch activation via the Notch ligand Jagged. A fusion between the extracellular domain of the rat Jagged1 protein and the Fc region of human IgG (Jag1/Fc) was obtained from R&D Systems (Minneapolis, Minn.; Catalogue No. 599-JG), and the lyophilized preparation was reconstituted to a concentration of 1 mg/ml in PBS containing 0.1% (w/v) bovine serum albumin.
The chimeric Jag1/Fc protein was “clustered” by preincubation with a ten-fold weight excess of goat anti-human Fc (Sigma, St. Louis Mo.). Before use, the antibody solution (2 mg/ml) was dialyzed overnight, with three changes, against PBS to remove sodium azide. The volume of antibody solution was not changed by dialysis. For clustering, Jag1/Fc (1 mg/ml in PBS+0.1% BSA) and anti-human Fc (2 mg/ml in PBS) were mixed and incubated at room temperature for 40 min prior to addition to the cell cultures.
(§1) Clustered Jag1/Fc was added to cultures at a final concentration of 5 μg/ml Jag1/Fc and 50 μg/ml antibody. Control cultures received only the antibody. Additional cultures received Jag1/Fc and anti-Fc as above, along with 5 μM N—[N-(3,5-Difluorophenacetyl)-L-alanyl]-S-phenylglycine t-butyl ester (DAPT), a […]-secretase inhibitor. Stock solutions of 2 mM DAPT in DMSO were obtained from Sigma-Aldrich, St. Louis, Mo. […]-secretase is a protease that, upon activation of transmembrane Notch protein by a Notch ligand, cleaves the Notch protein at a site that allows release of the Notch intracellular domain. Certain cultures also included BMP-6 (final concentration 500 ng/ml), as described in Example 5.
(§2) After 10 days in culture, cells were fixed in methanol, stained with Alizarin Red and examined by microscopy as described in Example 5.

MASCs [2] = experiment: Adipogenic differentiation of MASCs with clustered Jag1/Fc, DAPT, BMP6; format: cell-based, human
Procedure: MASCs were prepared essentially as described in Example 1. Culture in adipogenic differentiation medium was as described in Example 6. Treatment of cells with Anti-Fc and Clustered Jag1/Fc were as described in Example 7. Fixation, staining with Oil Red O and analysis of adipogenic differentiation were as described in Example 6.

CCND1 = experiment: RT2 Profiler PCR Array Human Notch Signaling Pathway; format: cell-based; details: Jag-activated MASCs compared to MASCs; two-fold criteria
Procedure: (§3) The expression of a number of genes involved in Notch signaling, and in signaling pathways that interact with the Notch pathway (Wnt, Shh), was compared in DRCs and MASCs, using a commercial array (RT^2 Profiler PCR Array Human Notch Signaling Pathway plate, SA Biosciences No. PAHS-059F). The genes that were analyzed are shown in Table 2 (taken from SA Biosciences online Catalogue). Notch pathway members include genes encoding Notch ligands, enzymes that modify the Notch protein and various transcriptional regulatory proteins that control the expression of the Notch pathway members. Notch pathway targets are genes whose expression is either directly or indirectly regulated by Notch activation. Wnt pathway members are Wnt ligands or proteins that participate in WNT-mediated signaling pathways. The Wnt pathway was investigated because of known crosstalk between the Notch and Wnt signaling pathways, and because it is involved in osteogenic differentiation, which is inhibited in DRCs.
(§4) MASCs and DRCs, prepared and frozen as described in Examples 1-3, were thawed (Example 4), grown for 4-7 days in alpha-MEM/10% FBS/pen-strep, then replated into 10-cm Petri dishes at a concentration of 0.5×10^6 cells/dish, in duplicate. After re-plating, cells were grown for 4 days to allow intracellular levels of endogenous NICD, activated by trypsinization, to return to basal. At the end of this period, culture medium was carefully aspirated, the cells were lysed in 400 μl RLT Buffer (Qiagen, Valencia, Calif.), and the lysate was scraped from the plate.
(§5) As a control, MASCs that had been exposed to clustered soluble Jagged1 protein, to activate the Notch signaling pathway (see Example 7), were also analyzed and compared to MASCs.
(§6) The lysate was homogenized using a QiaShredder (Qiagen, Valencia, Calif.). The homogenate was mixed with ethanol, and the mixture was applied to a RNeasy column (Qiagen, Valencia, Calif.) and processed according to the manufacturer's instructions. The eluate was treated with a DNA-Free™ kit (Ambion, Austin, Tex.), according to the manufacturer's protocol, for elimination of genomic DNA.
(§7) RNA concentration and purity was assayed on Nanodrop spectrophotometer (Thermo Scientific, Wilmington, Del.). […]
(§8) cDNA samples, synthesized as described above, were diluted and added to RT^2 SYBR Green qPCR Master Mix (SA Biosciences) according to the manufacturer's recommendations. […] SYBR green fluorescence, normalized to controls also present on the array, is used a s a measure of mRNA level.
(§9) Results were analyzed using analysis tools provided by SA Biosciences, assigning results from MASCs to the “Control” field and DRC results to the “Test” field, to obtain figures for relative changes in expression for the genes assayed. […]

HES1 = experiment: as above; format: cell-based; details: Jag-activated MASCs compared to MASCs
Procedure: as §3, §4, §5, §6, §7, §8, §9

HR = experiment: as above; format: cell-based; details: Jag-activated MASCs compared to MASCs
Procedure: as §3, §4, §5, §6, §7, §8, §9

WISP1 = experiment: as above; format: cell-based; details: Jag-activated MASCs compared to MASCs
Procedure: as §3, §4, §5, §6, §7, §8, §9

[3] = system: genes involved in Notch signaling; experiment: RT2 Profiler PCR Array Human Notch Signaling Pathway, number of genes altered; format: cell-based; details: Jag-activated MASCs compared to MASCs; 84 genes tested
Procedure: as §3, with “Wnt pathway members are Wnt ligands or proteins that participate in WNT-mediated signaling pathways. The Wnt pathway was investigated because of known crosstalk between the Notch and Wnt signaling pathways, and because it is involved in osteogenic differentiation, which is inhibited in DRCs.” left out
As a control, MASCs that had been exposed to clustered soluble Jagged1 protein, to activate the Notch signaling pathway (see Example 7), were also analyzed and compared to MASCs. […]
as §8, §9

DRCs = experiment: Osteogenic differentiation of DRCs with DAPT; format: cell-based, human; details: presence of BMP6
Procedure: as §1, §2

[4] = system: osteogenic differentiation; experiment: Osteogenic differentiation potential assay (Alizarin Red staining); format: cell-based, human; details: BMP-6 500 ng/ml; MASCs, DRCs, mock DRCs
Procedure: For assay of osteogenic differentiation potential, cells (MASCs, DRCs or mock DRCs) were plated at 10^4 cells/well in 96-well plates in […]MEM (Mediatech, Herndon, Va.) supplemented with 10% Fetal Bovine Serum (FBS, HyClone, Logan Utah) and cultured overnight.
The next day, the culture medium was replaced with DMEM (Mediatech, Herndon, Va.) containing high glucose, pyruvate, glutamine and 10% FBS supplemented with 50 μg/ml Ascorbic acid (L-ascorbic acid 2-phosphate, Wako Chemical, Ltd., Japan, added freshly before use), 10 mM β-glycerophosphate (Sigma-Aldrich, St. Louis, Mo.), and 100 nM Dexamethasone (Sigma-Aldrich, St. Louis, Mo.). This “osteogenic differentiation medium” was changed every 3-4 days.
Osteogenic differentiation assays were conducted in the absence or presence of recombinant human bone morphogenetic protein 6 (BMP-6; R&D Systems, Minneapolis, Minn.), at a concentration of 500 ng/ml.
On day 14 or 17 after the transfer of cells into osteogenic differentiation medium, cultures were assayed for the presence of osteocytes by Alizarin Red staining. Cells were fixed by adding 100% methanol to the wells and incubating on ice for 3 min. The wells were then rinsed with water, and 40 mM alizarin red S (Sigma-Aldrich, St. Louis, Mo.), pH 4.2 was added. […]

[5] = system: adipogenic differentiation; experiment: Adipogenic differentiation potential assay (Oil Red O staining); format: cell-based, human; details: BMP-6 100 ng/ml; day 17-21
Procedure: For assay of adipogenic differentiation potential, cells were plated at 10^4 cells/well in 96-well plates in […]MEM (Mediatech, Herndon, Va.) supplemented with 10% Fetal Bovine Serum (FBS, HyClone, Logan Utah) and cultured overnight.
The next day, the culture medium was replaced with DMEM (Mediatech, Herndon, Va.) containing high glucose, pyruvate, glutamine and 10% FBS supplemented with 1 μM Dexamethasone, […] 1-methyl-3 isobutylxanthine, 100 μM indomethacin and 10 μg/ml insulin (all supplements from Sigma-Aldrich, St. Louis, Mo.). This “adipogenic differentiation medium” was changed every 3-4 days.
Adipogenic differentiation assays were conducted in the absence or presence of recombinant human bone morphogenetic protein 6 (BMP-6; R&D Systems, Minneapolis, Minn.) at a concentration of 100 ng/ml.
On day 17-21 after transfer of cells into adipogenic differentiation medium, cells were tested for adipocytic differentiation by staining with Oil Red O. Cells were fixed by adding 10% formalin to the wells and incubating for 30-60 min at room temperature. Wells were then washed with 60% isopropanol and allowed to dry completely. Oil Red O working solution was freshly prepared from Oil Red stock solution (3.5 mg/ml in isopropanol) by diluting it 3:2 in water and filtering. Staining was conducted for 10 min; and the wells were then washed extensively with water. […]

For “Jag1/Fc: fusion between the extracellular domain of the rat Jagged1 protein and the Fc region of human IgG, clustered with goat anti-human Fc”, the “dose dependence of stimulation of osteogenesis” value (MASCs [1]; additional experiments) was “dose-dependent”, the “effect on osteogenesis of MASCs (Alizarin Red)” value (MASCs [1]; clustered Jag1/Fc 5 μg/ml, absence or presence of BMP6, 10 days) was “osteogenesis was strongly enhanced” and the “effect on BMP6-enhanced adipogenesis of MASCs” value (MASCs [2]; Jag with BMP6) was “reversed”. For the same molecule, the “effect on adipogenesis of MASCs” value (MASCs [2]; Jag with BMP6 and DAPT) was “no effect”, the “effect on adipogenesis of MASCs” value (MASCs [2]; clustered Jag1/Fc, absence of DAPT or BMP6) was “blocked” and the “expression of CCND1 (cyclin D1)” value (CCND1) was “not altered”. The “expression of Hes1” value (HES1) was “up-regulated”, the “expression of HR” value (HR) was “up-regulated” and the “expression of Wisp1” value (WISP1) was “up-regulated”. For the same molecule, the “number of genes with activated expression (two-fold or more)” value [3] was 18 genes and the “number of genes with reduced expression (50% or less)” value [3] was “three”.

C[C@H](NC(=O)Cc1cc(F)cc(F)c1)C(=O)N[C@H](C(=O)OC(C)(C)C)c1ccccc1 [DAPT, N—[N-(3,5-Difluorophenacetyl)-L-alanyl]-S-phenylglycine t-butyl ester] was tested, and the “effect on Jagged stimulation of osteogenesis” value (MASCs [1]; absence of BMP6) was “completely reversed”, the “effect on Jagged stimulation of osteogenesis” value (MASCs [1]; presence of BMP6 500 ng/ml) was “strongly reduced” and the “effect on osteogenic potential exhibited by DRCs” value (DRCs) was “reduced”. For the same molecule, the “effect on stimulation of adipogenesis by BMP6” value (MASCs [2]; DAPT with BMP6) was “enhanced further” and the “effect on adipogenesis of MASCs” value (MASCs [2]; DAPT, no BMP6) was “slightly enhanced adipogenesis”.

B1: BMP-6: recombinant human bone morphogenetic protein 6 (protein, UniProt P22004 375-513, looked up)
Bone morphogenetic protein 6: SASSRRRQQSRNRSTQSQDVARVSSASDYNSSELKTACRKHELYVSFQDLGWQDWIIAPKGYAANYCDGECSFPLNAHMNATNHAIVQTLVHLMNPEYVPKPCCAPTKLNAISVLYFDDNSNVILKKYRNMVVRACGCH
With B1 the “effect of BMP-6 on degree of osteogenic differentiation” value [4] was “increased the degree of osteogenic differentiation”, the “effect of BMP-6 on adipocytic differentiation of MASCs” value [5] was “enhanced” and the “effect on adipogenesis of MASCs” value (MASCs [2]; BMP6 in the differentiation medium) was “strongly enhanced adipogenesis”.
